The values that follow are results of earlier work, collected in US20080008772A1, “Narcotic biphasic release compositions and methods for treatment of coughing, sneezing, rhinorrhea, and/or nasal obstruction” (Everett Laboratories, Inc., priority 2006, published 2008).

The conditions of series [1]: in vivo.

Consider `COc1ccccc1OCC(O)CO` (centres unmarked) [Guaifenesin, 3-(2-methoxyphenoxy)-1,2 propanediol], for which, in series [1], the plasma half life entry is “one”.

As for `COc1ccc2c3c1O[C@H]1C(=O)CC[C@H]4[C@@H](C2)N(C)CC[C@]314` [hydrocodone, 4,5α-epoxy-3-methoxy-17-methylmorphinan-6-one], under “at therapeutic antitussive doses”, the analgesic effects result was “does exert analgesic effects”. In addition, the “effects on the cardiovascular system” value (therapeutic doses) is “insignificant”. Also, the constipation effects result (versus morphine and codeine) is “much weaker than that of morphine and no stronger than that of codeine”.

Turning to `COc1ccc2c3c1O[C@H]1C(=O)CC[C@H]4[C@@H](C2)N(C)CC[C@]314.COc1ccc2c3c1O[C@H]1C(=O)CC[C@H]4[C@@H](C2)N(C)CC[C@]314.O.O.O.O.O.O=C(O)C(O)C(O)C(=O)O.O=C(O)C(O)C(O)C(=O)O` [Hydrocodone bitartrate, 4,5a-epoxy-3-methoxy-17-methylmorphinan-6-one tartrate (1:1)hydrate (2:5)], the sedative action entry (at equi-effective doses, versus codeine) is reported as “greater than codeine”.
